Laboratory results taken from patent US20220228985A1, “FLUORESCENT COMPOSITION FOR DETECTING BIOLOGICAL MATERIAL” (Bioacts Corporation, priority 2021, published 2022).

System: red blood cells
Assay: Microscopic analysis of hemolytic efficacy of surfactant compound
Assay type: cell-based
Conditions: E-check (low concentration), microscope X200 DIC, control PBS, FIG. 4
Experimental: Microscopic analysis was performed to visually confirm the blood hemolysis effect of the blood analysis reagent prepared with the compound of Chemical Formula 3 and the compound of Chemical Formula 4 as the surfactant compound. The blood analysis reagent prepared in E-check (low concentration), a quality control reagent, was treated and microscopic analysis was performed. The analysis was performed with a Nikon ECLIPSE microscope, and measured under X200 DIC filter conditions. As a control, a sample obtained by treating PBS in an E-check reagent was used.

SMILES | hemolysis of red blood cells
CCCCCCCCCCCCCCn1cc(COCCOCCOCCOCCOCCOCCOCCOCCOCCOCCOCCOCCOCCOCCOCCOCCOCCOCCOCCOCCOCCO)nn1 [Chemical Formula 4] | excellent efficacy in hemolysis of red blood cells
CCCCCCCCn1cc(COCCOCCOCCOCCOCCOCCOCCOCCOCCOCCO)nn1 [Compound 3b] | most cleanly hemolyzed
